Source: patent publication US20110294836A1, “ARYL GPR119 AGONISTS AND USES THEREOF” (METABOLEX, INC., priority 2008, published 2011)

Target: T1, GPR119 (Homo sapiens, UniProt Q8TDV5)
T1 construct: expressed in transfected cells
T1 sequence (Q8TDV5 1-335): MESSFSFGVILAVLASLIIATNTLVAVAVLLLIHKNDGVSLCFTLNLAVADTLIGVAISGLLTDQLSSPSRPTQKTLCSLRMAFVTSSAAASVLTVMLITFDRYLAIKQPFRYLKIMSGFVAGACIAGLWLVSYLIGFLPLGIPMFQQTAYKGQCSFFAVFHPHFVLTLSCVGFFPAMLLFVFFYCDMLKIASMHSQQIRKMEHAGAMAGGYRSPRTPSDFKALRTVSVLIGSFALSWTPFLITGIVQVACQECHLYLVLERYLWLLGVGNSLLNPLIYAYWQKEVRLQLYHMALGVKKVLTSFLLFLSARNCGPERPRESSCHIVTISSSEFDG
Test: Stimulation of cAMP in CHO cell line stably expressing GPR119 (HTRF cAMP assay)
Format: cell-based
Details: GPR119 stably expressing CHO cells, 30 minutes, relative to maximal activity (100%) of 5-Ethyl-2-{4-[4-(4-tetrazol-1-yl-phenoxymethyl)-thiazol-2-yl]-piperidin-1-yl}-pyrimidine
Method: This assay was developed using a stable cell line expressing GPR119, generated as follows. GPR119 (co-pending, co-owned patent application U.S. Ser. No. 11/964,461) was cloned into Gateway pDEST 40vector (Invitrogen), using the Gateway cloning system (invitrogen) according to the manufacturer's instructions. A stable cell line was generated by transfecting a 10 cm plate of CHO cells (source) with Bug of this construct using Transit-CHO transfection kit (Minis). CHO cells were plated the day prior to transfection at a density of 3,000,000 cells/plate. Clones were selected using the antibiotic G418 at 500 ug/ml. 23 clones were picked and assayed for the expression of the receptor by measuring changes in intracellular cAMP levels in response to a known GPR119 agonist.
To measure cAMP activity in response to GPR119 agonist, the clones were plated in 96 well plates at 17500 cells per well. On the day after plating, cells were incubated with the GPR119 agonist at 10 μM for 30 minutes in Ham's F12 Media (Gibco) with 0.04% DMSO. cAMP was measured using the cAMP dynamic kit from Cis Bio (Bedford, Mass.) according to the manufacturer's instructions. Briefly, cells were lysed, and cAMP levels determined by competitive immunoassay using D2 labeled cAMP, and europium cryptate tagged anti cAMP antibody. When in close proximity, the D2 and europium cryptate undergo fluorescence resonance energy transfer (FRET), which is measured as a fluorescence ratio (665 nm/620 nm). Unlabelled cAMP in the cell lysate competed with the D2 labeled cAMP for the europium crypate labeled antibody. The resulting decrease in FRET signal corresponded to intracellular cAMP levels. Fluorescence was read on a BMG Labtech PHERAstar, software version 1.50.
The clone with the greatest response to GPR119 agonist was selected for the screening assay.
Compounds were dissolved in 100% DMSO to a concentration of […] to provide stock solutions. To determine activity against GPR119, compounds were incubated with GPR119 stably expressing cells (described above), at 6-8 concentrations ranging from 0.00003 to 10 micromolar, in 96 well plates, in 50 ul of Ham's F12 media for 30 minutes. Cells were plated at 17500 cells per well 1 day before running the assay. All compounds were also screened against the parental CHO cells. cAMP was measured using the cAMP dynamic kit from Cis Bio (Bedford, Mass.), according to the manufacturer's instructions. Briefly, cells were lysed and cAMP levels determined by competitive immunoassay using D2 labeled cAMP, and europium cryptate tagged anti cAMP antibody. When in close proximity, the D2 and europium cryptate undergo fluorescence resonance energy transfer (FRET), which is measured as a fluorescence ratio (665 nm/620 nm). Unlabelled cAMP in the cell lysate competed with the D2 labeled cAMP for the europium crypate labeled antibody. The resulting decrease in FRET signal corresponded to intracellular cAMP levels.
To determine percent activity for a tested compound, the FRET signal value obtained at a particular concentration are compared to the Maximal FRET signal value obtained for 5-Ethyl-2-{4-[4-(4-tetrazol-1-yl-phenoxymethyl)-thiazol-2-yl]-piperidin-1-yl}-pyrimidine. The maximal activity of 5-Ethyl-2-{4-[4-(4-tetrazol-1-yl-phenoxymethyl)-thiazol-2-yl]-piperidin-1-yl}-pyrimidine is designated as 100% activity. Typically, the concentration of 5-Ethyl-2-{4-[4-(4-tetrazol-1-yl-phenoxymethyl)-thiazol-2-yl]-piperidin-1-yl}-pyrimidine in the assay was approximately 0.1 μM. The synthesis of 5-Ethyl-2-{4-[4-(4-tetrazol-1-yl-phenoxymethyl)-thiazol-2-yl]-piperidin-1-yl}-pyrimidine is disclosed in co-owned pending U.S. patent application Ser. No. 11/964,461, herein incorporated by reference. Activities of compounds in Table 1 below are expressed as % activity at 3 μM compound compared to the maximal activity of 5-Ethyl-2-{4-[4-(4-tetrazol-1-yl-phenoxymethyl)-thiazol-2-yl]-piperidin-1-yl}-pyrimidine at 3 μM.

In order of rising “% Activity at 3 μM Compound” value:
1. CC(C)c1noc(C(=O)N2CCC(c3cccc(COc4ccc(S(C)(=O)=O)cc4F)n3)CC2)n1 [Example 13, (4-(6-((2-fluoro-4-(methylsulfonyl)phenoxy)methyl)pyridin-2-yl)piperidin-1-yl)(3-isopropyl-1,2,4-oxadiazol-5-yl)methanone]  33%
2. CC(C)(C)OC(=O)N1CCC(c2cccc(COc3ccc(S(C)(=O)=O)cc3F)n2)CC1 [Example 2, tert-Butyl 4-(6-((2-fluoro-4-(methylsulfonyl)phenoxy)methyl)pyridin-2-yl)piperidine-1-carboxylate]  59%
3. CCc1cnc(N2CCC(c3cccc(OCc4ccc(S(C)(=O)=O)cc4)c3)CC2)nc1 [Example 10, 5-ethyl-2-(4-(3-(4-(methylsulfonyl)benzyloxy)phenyl)piperidin-1-yl)pyrimidine]  59%
4. CC(C)(C)OC(=O)N1CCC(c2cccc(COc3ccc(-n4cnnn4)cc3F)n2)CC1 [Example 4, tert-Butyl 4-(6-((2-fluoro-4-(1H-tetrazol-1-yl)phenoxy)methyl)pyridin-2-yl)piperidine-1-carboxylate]  61%
5. CC(C)(C)OC(=O)N1CCC(c2cccc(OCc3ccc(S(C)(=O)=O)cc3)c2)CC1 [Example 9, tert-Butyl 4-(3-(4-(methylsulfonyl)benzyloxy)phenyl)piperidine-1-carboxylate]  61%
6. Fc1cc(-n2cnnn2)ccc1OCc1cccc(C2CCN(c3ncc(C(F)(F)F)cn3)CC2)n1 [Example 6, 2-(4-(6-((2-fluoro-4-(1H-tetrazol-1-yl)phenoxy)methyl)pyridin-2-yl)piperidin-1-yl)-5-(trifluoromethyl)pyrimidine]  63%
7. CC(C)(C)OC(=O)N1CCC(c2nccc(COc3ccc(-n4cnnn4)cc3F)n2)CC1 [Example 7, tert-Butyl 4-(4-((2-fluoro-4-(1H-tetrazol-1-yl)phenoxy)methyl)pyrimidin-2-yl)piperidine-1-carboxylate]  70%
8. CCc1cnc(N2CCC(c3cccc(COc4ccc(-n5cnnn5)cc4F)n3)CC2)nc1 [Example 5, 5-ethyl-2-(4-(6-((2-fluoro-4-(1H-tetrazol-1-yl)phenoxy)methyl)pyridin-2-yl)piperidin-1-yl)pyrimidine]  73%
9. CC(C)(C)OC(=O)N1CCC(c2cc(COc3ccc(-n4cnnn4)cc3F)ccn2)CC1 [Example 14, tert-Butyl 4-(4-((2-fluoro-4-(1H-tetrazol-1-yl)phenoxy)methyl)pyridin-2-yl)piperidine-1-carboxylate]  73%
